This is an account of results in patent US20250144164A1, “COMPOSITIONS, METHODS, AND MEDICAL COMPOSITIONS FOR TREATMENT OF AND MAINTAINING THE HEALTH OF THE LIVER” (priority 2023, published 2025).

Each structure is given as a SMILES string.

The test system of the assay is CCl4-induced hepatotoxicity model. The assay is described as follows: Carbon tetrachloride (CCl4)-induced hepatotoxicity model, serum ALT and survival. In kind it is in vivo, ICR/CD-1 mice. Particulars: CCL4 25 μl/kg; dose 50 mg/kg.

Consider `C=CCc1cc(OC)c2c(c1)OCO2` [Myristicin], for which the “% Change (inhibition in serum ALT)” value is 99.7%.
